This note sets out measurements from patent US20080261973A1, “Sulphonamidoaniline Derivatives Being Janus Kinase Inhibitors” (Novartis AG, priority 2005, published 2008).

The structures appear in SMILES notation.

The melting point is the temperature, or range, at which the solid turns liquid. As for `CS(=O)(=O)Nc1cccc(Nc2nc(NC3CN4CCC3CC4)c3nc[nH]c3n2)c1` (centres unmarked), the melting point was 200 to 204 °C. Next, `CS(=O)(=O)Nc1cccc(Nc2nc(NC3CCC3)c3nc[nH]c3n2)c1` [Example 1, N-[3-(6-Cyclobutylamino-9H-purin-2-ylamino)-phenyl]-methanesulfonamide]: 142 to 146 °C; `CC(C)Nc1nc(Nc2cccc(NS(C)(=O)=O)c2)nc2[nH]cnc12` [Example 2, N-[3-(6-Isopropylamino-9H-purin-2-ylamino)-phenyl]-methanesulfonamide]: 161 to 165 °C; `CS(=O)(=O)Nc1cccc(Nc2nc(N3CCC[C@H]3CO)c3nc[nH]c3n2)c1` [Example 3, N-{3-[6-((S)-2-Hydroxymethyl-pyrrolidin-1-yl)-9H-purin-2-ylamino]-phenyl}-methanesulfonamide]: 192 to 197 °C.

In turn, `CS(=O)(=O)Nc1cccc(Nc2nc(NCCc3c[nH]cn3)c3nc[nH]c3n2)c1` [Example 4, N-(3-{6-[2-(1H-Imidazol-4-yl)-ethylamino]-9H-purin-2-ylamino]-phenyl}-methanesulfonamide] displayed a melting point of 205 to 210 °C. In the case of `CC(C)N(CCNc1nc(Nc2cccc(NS(C)(=O)=O)c2)nc2[nH]cnc12)C(C)C` [Example 5, N-(3-{6-[2-Diisopropylamino-ethylamino]-9H-purin-2-ylamino]-phenyl}-methanesulfonamide] it was 226 to 230 °C; in that of `CN(C)CCNc1nc(Nc2cccc(NS(C)(=O)=O)c2)nc2[nH]cnc12` [Example 6, N-(3-{6-[2-Dimethylamino-ethylamino]-9H-purin-2-ylamino]-phenyl}-methanesulfonamide], 191 to 195 °C. Next, `CS(=O)(=O)Nc1cccc(Nc2nc(N3CCN(c4ccncc4)CC3)c3nc[nH]c3n2)c1` [Example 7, N-{3-[6-(4-Pyridin-4-yl-piperazin-1-yl)-9H-purin-2-ylamino]-phenyl}-methanesulfonamide]: 227 to 230 °C; `CN(CCC#N)c1nc(Nc2cccc(NS(C)(=O)=O)c2)nc2[nH]cnc12` [Example 8, N-(3-{6-[(2-Cyano-ethyl)-methyl-amino]-9H-purin-2-ylamino}-phenyl)-methanesulfonamide]: 218 to 222 °C; `CS(=O)(=O)Nc1cccc(Nc2nc(NCCc3ccccn3)c3nc[nH]c3n2)c1` [Example 10, N-{3-[6-(2-Pyridin-2-yl-ethylamino)-9H-purin-2-ylamino]-phenyl}-methanesulfonamide]: 199 to 202 °C. Turning to `CS(=O)(=O)Nc1cccc(Nc2nc(NCC(O)CO)c3nc[nH]c3n2)c1` (centres unmarked) [Example 11, N-{3-[6-(2,3-Dihydroxy-propylamino)-9H-purin-2-ylamino]-phenyl}-methanesulfonamide], the melting point was 164 to 168 °C. In the case of `CS(=O)(=O)Nc1cccc(Nc2nc(N3CCC(O)C3)c3nc[nH]c3n2)c1` (centres unmarked) [Example 12, N-{3-[6-(3-Hydroxy-pyrrolidin-1-yl)-9H-purin-2-ylamino]-phenyl}-methanesulfonamide] it was 243 to 248 °C; in that of `Cc1cn(-c2nc(Nc3cccc(NS(C)(=O)=O)c3)nc3[nH]cnc23)cn1` [Example 13, N-{3-[6-(4-Methyl-imidazol-1-yl)-9H-purin-2-ylamino]-phenyl}-methanesulfonamide], 298 to 301 °C. For the compound `CS(=O)(=O)Nc1cccc(Nc2nc(N3CCCC3)c3nc[nH]c3n2)c1` [Example 14, N-[3-(6-Pyrrolidin-1-yl-9H-purin-2-ylamino)-phenyl]-methanesulfonamide], the melting point was 164 to 168 °C. Next, `CS(=O)(=O)Nc1cccc(Nc2nc(NCc3cccnc3)c3nc[nH]c3n2)c1` [Example 15, N-(3-{6-[(Pyridin-3-ylmethyl)-amino]-9H-purin-2-ylamino}-phenyl)-methanesulfonamide]: 144 to 147 °C; `CC(C)(CO)Nc1nc(Nc2cccc(NS(C)(=O)=O)c2)nc2[nH]cnc12` [Example 16, N-{3-[6-(2-Hydroxy-1,1-dimethyl-ethylamino)-9H-purin-2-ylamino]-phenyl}-methanesulfonamide]: 215 to 218 °C. Next, `CS(=O)(=O)Nc1cccc(Nc2nc(NCCO)c3nc[nH]c3n2)c1` [Example 17, N-{3-[6-(2-Hydroxy-ethylamino)-9H-purin-2-ylamino]-phenyl}-methanesulfonamide]: 163 to 166 °C; `CN1CCN(c2nc(Nc3cccc(NS(C)(=O)=O)c3)nc3[nH]cnc23)CC1` [Example 18, N-{3-[6-(4-Methyl-piperazin-1-yl)-9H-purin-2-ylamino]-phenyl}-methanesulfonamide]: 148 to 151 °C. Next, `CN(C)c1ccc(CNc2nc(Nc3cccc(NS(C)(=O)=O)c3)nc3[nH]cnc23)cc1` [Example 20, N-{3-[6-(4-Dimethylamino-benzylamino)-9H-purin-2-ylamino]-phenyl}-methanesulfonamide]: 138 to 142 °C; `CS(=O)(=O)Nc1cccc(Nc2nc(NCC3CCCCN3)c3nc[nH]c3n2)c1` (centres unmarked) [Example 21, N-(3-{6-[(Piperidin-2-ylmethyl)-amino]-9H-purin-2-ylamino}-phenyl)-methanesulfonamide]: 147 to 150 °C. Regarding `CS(=O)(=O)Nc1cccc(Nc2nc(NCCN3CCOCC3)c3nc[nH]c3n2)c1` [Example 22, N-{3-[6-(2-Morpholin-4-yl-ethylamino)-9H-purin-2-ylamino]-phenyl}-methanesulfonamide], the melting point was in the range of 233 to 237 °C. In the case of `CS(=O)(=O)Nc1cccc(Nc2nc(OC3CCCC3)c3nc[nH]c3n2)c1` [Example 23, N-[3-(6-Cyclopentyloxy-9H-purin-2-ylamino)-phenyl]-methanesulfonamide] it was 137 to 140 °C. Next, `CS(=O)(=O)Nc1cccc(Nc2nc(OCC3CCCCC3)c3nc[nH]c3n2)c1` [Example 24, N-[3-(6-Cyclohexylmethoxy-9H-purin-2-ylamino)-phenyl]-methanesulfonamide]: 169 to 172 °C; `CS(=O)(=O)Nc1cccc(Nc2nc(OC3CCOC3)c3nc[nH]c3n2)c1` (centres unmarked) [Example 25, N-{3-[6-(Tetrahydro-furan-3-yloxy)-9H-purin-2-ylamino]-phenyl}-methanesulfonamide]: 255 to 257 °C. In the case of `O=S(=O)(Nc1cccc(Nc2nc(NC3CCCC3)c3nc[nH]c3n2)c1)C(F)(F)F` [Example 27, N-[3-(6-Cyclopentylamino-9H-purin-2-ylamino)-phenyl]-C,C,C-trifluoro-methanesulfonamide] it was 243 to 246 °C; in that of `CN(C)c1cccc(CNc2nc(Nc3cccc(NS(C)(=O)=O)c3)nc3[nH]cnc23)c1` [Example 31, N-{3-[6-(3-Dimethylamino-benzylamino)-9H-purin-2-ylamino]-phenyl}-methanesulfonamide], 148 to 151 °C. In turn, `COCCOc1nc(Nc2cccc(NS(C)(=O)=O)c2)nc2[nH]cnc12` [Example 32, N-{3-[6-(2-Methoxy-ethoxy)-9H-purin-2-ylamino]-phenyl}-methanesulfonamide] yielded a melting point of 201 to 204 °C. Next, `CC(C)N(C)c1nc(Nc2cccc(NS(C)(=O)=O)c2)nc2[nH]cnc12` [Example 36, N-{3-[6-(Isopropyl-methyl-amino)-9H-purin-2-ylamino]-phenyl}-methanesulfonamide]: 144 to 147 °C; `CS(=O)(=O)Nc1cccc(Nc2nc(NC3CCCC3)c3nc[nH]c3n2)c1` [Example 37, N-[3-(6-Cyclopentylamino-9H-purin-2-ylamino)-phenyl]-methanesulfonamide]: 234 to 239 °C. Next, `C[C@H](Nc1nc(Nc2cccc(NS(C)(=O)=O)c2)nc2[nH]cnc12)C(C)(C)C` [Example 38, N-{3-[6-((S)-1,2,2-Trimethyl-propylamino)-9H-purin-2-ylamino]-phenyl}-methanesulfonamide]: 150 to 153 °C. Next, `C[C@@H](Nc1nc(Nc2cccc(NS(C)(=O)=O)c2)nc2[nH]cnc12)C(C)(C)C` [Example 39, N-{3-[6-((R)-1,2,2-Trimethyl-propylamino)-9H-purin-2-ylamino]-phenyl}-methanesulfonamide]: 169 to 171 °C; `C[C@H](Nc1nc(Nc2cccc(NS(C)(=O)=O)c2)nc2[nH]cnc12)c1ccccc1` [Example 40, N-{3-[6-((S)-1-Phenyl-ethylamino)-9H-purin-2-ylamino]-phenyl}-methanesulfonamide]: 141 to 144 °C. In the case of `C[C@@H](Nc1nc(Nc2cccc(NS(C)(=O)=O)c2)nc2[nH]cnc12)c1ccccc1` [Example 41, N-{3-[6-((R)-1-Phenyl-ethylamino)-9H-purin-2-ylamino]-phenyl}-methanesulfonamide], the melting point was 136 to 139 °C.

Turning to `CS(=O)(=O)Nc1cccc(Nc2nc(OC3CCCC3)c3cc[nH]c3n2)c1` [Example 43, N-[3-(4-Cyclopentyloxy-7H-pyrrolo[2,3-d]pyrimidin-2-ylamino)-phenyl]-methanesulfonamide], the melting point lay in the range of 203 to 205 °C.

For the compound `CS(=O)(=O)Nc1ccc(Nc2nc(NC3CCCC3)c3nc[nH]c3n2)cc1` [Example 44, N-[4-(6-Cyclopentylamino-9H-purin-2-ylamino)-phenyl]-methanesulfonamide], the melting point was in the range of 261 to 265 °C. Next, `CS(=O)(=O)Nc1cccc(Nc2nc(NCc3ncc[nH]3)c3nc[nH]c3n2)c1` [Example 45, N-(3-{6-[(1H-Imidazol-2-ylmethyl)-amino]-9H-purin-2-ylamino}-phenyl)-methanesulfonamide]: 216 to 220 °C; `CS(=O)(=O)Nc1cccc(Nc2nc(Oc3ccc(F)cc3)c3nc[nH]c3n2)c1` [Example 46, N-{3-[6-(4-Fluoro-phenoxy)-9H-purin-2-ylamino]-phenyl}-methanesulfonamide]: 136 to 139 °C; `C[C@@H](Nc1nc(Nc2cccc(NS(C)(=O)=O)c2)nc2[nH]ccc12)C(C)(C)C` [Example 49, N-{3-[4-((R)-1,2,2-Trimethyl-propylamino)-7H-pyrrolo[2,3-d]pyrimidin-2-ylamino]-phenyl}-methanesulfonamide]: 125 to 128 °C.
